{"source": "patent US20040170714A1", "about": "“Bauhinia extracts” (priority 2001, published 2004)", "key": {"N0-STZ rats [1]": {"test_system": "N0-STZ rats", "assay": "Oral Glucose Tolerance Test (OGTT) in the N0-STZ rat model after 5 days of gavage", "assay_type": "in vivo", "details": "Example 2a, 2 × 100 mg/kg daily for 5 days", "description": "The N0-STZ rat model is described in Portha B., Picon L., Rosselin G., Diabetologia, 1979, 17, 371-377. The Oral Glucose Tolerance Test (OGTT) is described in Wilkerson: Diagnosis, oral glucose tolerance test: in Diabetes mellitus, Diagnosis & Treatment, p.31-34, NY, American Diabetes Association, 1964. During 5 days an appropriate dose of the extract is gavaged into the N0-STZ rats two times a day. Three hours after the last administration the Oral Glucose Tolerance Test (OGTT) is performed in awake rats by administering 2 g glucose/kg body weight. Blood samples are collected just before glucose administration (0 min) and after 30, 60 90, 120 and 180 minutes.\nThe N0-STZ rat model is used to evaluate the efficacy of the extract of example 1. During 5 days an appropriate dose of the drug (table 1) is gavaged into 8 N0-STZ rats two times a day. Three hours after the last administration the Oral Glucose Tolerance Test (OGTr) is performed in awake rats by administering 2 g glucose/kg body weight. Blood samples are collected just before glucose administration (0 min) and after 30, 60 90 and 120 minutes.\nThe N0-STZ rat model is used to evaluate the efficacy of the extract of example 1. During 5 days an appropriate dose of the drug (table 5) is gavaged into 8 N0-STZ rats. Three hours after the last administration the Oral Glucose Tolerance Test (OGTT) is performed in awake rats by administering 2 g glucose/kg body weight. Blood samples are collected just before glucose administration (0 min) and after 30, 60 90 and 120 minutes."}, "N0-STZ rats [2]": {"test_system": "N0-STZ rats", "assay": "Fasting plasma glucose concentration on day 5 in the N0-STZ rat model", "assay_type": "in vivo", "details": "2 × 100 mg/kg daily; day 5, after 2 hour fasting, before glucose; control −14", "description": "The fasting plasma glucose concentration (table 4) is measured from blood samples obtained after a 2 hour fasting period on day 5 before the administration of glucose. In addition, preferred extracts of the invention in hand show a significant decrease of the fasting plasma glucose concentration versus initial basal glycemia. Preferred extracts show a decrease of the fasting plasma glucose concentration of at least 10%, more preferred of at least 28% versus initial basal glycemia.\nThe fasting plasma glucose concentration (table 4) is measured from blood samples obtained after a 2 hour fasting period on day 5 before the administration of glucose."}}, "data": [{"smiles": "CN(C)C(=N)N=C(N)N", "note": "[example 24, metformin]", "values": [{"measurement": "OGTT area under curve: deviation from control (23)", "setting": "N0-STZ rats [1]", "result": "−18", "unit": "%"}, {"measurement": "OGTT: Area under curve (Integration of the Plasma Glucose Level versus time, table 2)", "setting": "N0-STZ rats [1]; 0-120 min", "result": 26363}, {"measurement": "Plasma Glucose Level", "setting": "N0-STZ rats [1]; 30 min after 2 g glucose/kg", "result": 245, "unit": "mg/dL"}, {"measurement": "Plasma Glucose Level", "setting": "N0-STZ rats [1]; 60 min after 2 g glucose/kg", "result": 242, "unit": "mg/dL"}, {"measurement": "Plasma Glucose Level", "setting": "N0-STZ rats [1]; 90 min after 2 g glucose/kg", "result": 223, "unit": "mg/dL"}, {"measurement": "Plasma Glucose Level", "setting": "N0-STZ rats [1]; 120 min after 2 g glucose/kg", "result": 207, "unit": "mg/dL"}, {"measurement": "Plasma Glucose Level", "setting": "N0-STZ rats [1]; time −0 min (just before 2 g glucose/kg)", "result": 143, "unit": "mg/dL"}, {"measurement": "Effect on fasting Plasma Glucose Concentration in % of variation versus initial basal glycemia", "setting": "N0-STZ rats [2]", "result": "−31", "unit": "%"}]}]}
